Reference: patent US20230263786A1, “MODULATION OF DRUG-DRUG INTERACTIONS OF VADADUSTAT” (Akebia Therapeutics, Inc., priority 2020, published 2023)
Several values for one entry are separate records, joined by “and”; a condition that tells them apart may be missing. Identical values can stand only once.

Assays:
[1] = Phase I interaction study Part 2 Arm 2: pravastatin; assay type: in vivo, human; conditions: for Cmax / AUC(0-inf) / AUC(0-t): both sexes, human, plasma, oral; for AUC(0-inf): read-out: AUC0-inf, Geometric LSM; for AUC(0-t): read-out: AUC0-last, Geometric LSM
Procedure: The pharmacokinetic (pK) parameters and safety of said drugs administered alone and in combination with Compound 1 were characterized.
Arm 2 (pravastatin): 26 subjects were treated with the study drug. On the morning of Day 1, subjects received a single oral dose pravastatin 40 mg after at least a 10-hour overnight fast. Subjects would remain fasted for approximately 4 hours after dosing. Following a 2-day washout period (Days 1-2) subjects received vadadustat 600 mg once daily beginning on Day 3 for 4 days (Days 3-6). When administered alone, vadadustat would be administered in the morning at least 30 minutes prior to breakfast. On Day 6, subjects received their morning dose of vadadustat 600 mg along with a single oral dose of pravastatin 40 mg after at least a 10-hour overnight fast. Subjects would remain fasted for at least 4 hours after dosing. Subjects were discharged from the clinical research unit on the morning of Day 7.

[2] = Phase I interaction study Part 1: rosuvastatin; assay type: in vivo, human; conditions: for AUC(0-inf) / AUC(0-t) / Cmax: both sexes, human, plasma, oral; for AUC(0-inf): read-out: AUC0-inf, Geometric LSM; for AUC(0-t): read-out: AUC0-last, Geometric LSM; for Cmax: read-out: Cmax, Geometric LSM
Procedure: In Part 1, 34 subjects were treated with the study drug. On the morning of Day 1, subjects received a single oral dose of rosuvastatin 20 mg after at least a 10-hour overnight fast. Subjects would remain fasted for at least 4 hours after dosing. […] When administered alone, vadadustat would be administered in the morning at least 30 minutes prior to breakfast. On Day 10, subjects received their morning dose of vadadustat 600 mg along with a single oral dose of rosuvastatin 20 mg after at least a 10-hour overnight fast. Subjects would remain fasted for at least 4 hours after dosing. Subjects were discharged from the clinical research unit (CRU) on the morning of Day 15.

[3] = Phase I interaction study Part 2 Arm 1: sulfasalazine; assay type: in vivo, human; conditions: both sexes, human, in vivo, 500 mg
Procedure: The study included 3 periods as follow: • Screening: performed within 28 days prior to dosing on Day 1. • Treatment period: […] In Part 2 (Arm 1): For each dose of sulfasalazine administered, blood samples for PK analysis were collected at the following timepoints: pre-dose, 0.5, 1, 2, 3, 4, 5, 6, 8, 12, 18, 24, 36, 48, 60, 72 and 96 hours postdose. […] Arm 1 (sulfasalazine): 26 subjects were treated with the study drug. On the morning of Day 1, subjects received a single oral dose of sulfasalazine 500 mg after at least a 10-hour overnight fast. Subjects would remain fasted for approximately 4 hours after dosing. Following a 5-day washout period (Days 1-5) subjects received vadadustat 600 mg once daily beginning on Day 6 for 7 days (Days 6-12). […] On Day 9, subjects received their morning dose of vadadustat 600 mg along with a single oral dose of sulfasalazine 500 mg after at least a 10-hour overnight fast. Subjects would remain fasted for at least 4 hours after dosing. Subjects were discharged from the clinical research unit on the morning of Day 13.

clinical = assay type: in vivo, human; conditions: both sexes, human, in vivo, 40 mg
Procedure: Subjects would remain fasted for approximately 4 hours after dosing. […] Subjects would remain fasted for at least 4 hours after dosing. Subjects were discharged from the clinical research unit on the morning of Day 6.

[4] = Phase I ferrous sulfate tablet interaction study; conditions: for Metabolite Ratio AUC(0-t) / Metabolite Ratio Cmax / Metabolite Ratio AUC(0-inf): Metabolite/Parent; for AUC(0-t) / Cmax / Tmax / AUC(0-inf): metabolite in plasma; for AUC(0-t) / Cmax / AUC(0-inf): mean; for Tmax: median;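 as to all read-outs here: crossover in fasted human subjects with four-day washout between periods, plasma glucuronide metabolite pharmacokinetics, ratios computed as metabolite over parent for AUC and Cmax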
Procedure: Pharmacokinetics. […] The ratio of metabolite to parent was calculated for each glucuronide metabolite for AUC(0-t); and AUC(0-inf) and Cmax.
Comparative Bioavailability. […] Factors incorporated in the model included: Sequence, Subject (Sequence), Period, and Treatment.
Treatment of Subjects. […] All subjects are dosed on the same day for Day 1 of Confinement Period 1, and are crossed over to the alternate treatment and are dosed on the same day for Day 1 of Confinement Period 2. Both treatments are administered in a fasted state, and a four-day Washout Period separates each Confinement Period.

[5] = [14C]-labeled Compound 1 650 mg metabolism and excretion; assay type: in vivo, human; conditions: single oral 650 mg [14C]-labeled Compound 1, healthy adult males
From the text: Compound 1 is metabolized via UGT, mainly producing O-glucuronide conjugates.
The urinary excretion rate of this drug and acyl glucuronide is less than 1% of the total radioactivity.

[6] = Phase I single-dose study, moderate hepatic impairment versus normal hepatic function; assay type: in vivo, human; conditions: single 450 mg; for AUC0-inf, plasma, total / AUC0-last, plasma, total / Cmax, plasma, total / Elimination Half-life (t1/2): mean ± SD
Procedure: A phase I, open-label, parallel-group, single-dose study was conducted to evaluate the pharmacokinetics (PK) of 450 mg vadadustat administered in adults with moderate hepatic impairment (Child-Pugh Class B) versus those with normal hepatic function. The pharmacokinetic (pK) parameters of Compound 1 were characterized. Safety and tolerability were assessed throughout the study.
Inclusion criteria: participants were male and female adults between 18 and 70 years of age, with either normal hepatic function or moderate hepatic impairment based on the Child-Pugh classification (Child-Pugh Class B [score 7-9]). Moderate hepatic impairment was defined by the presence and severity of elevated bilirubin levels, decreased serum albumin levels, elevated international normalized ratios >2.20, ascites, and hepatic encephalopathy.
Pharmacokinetics. […] PK parameters Ae0-72, Fe %0-72, and CL, were estimated from the urine concentration-time profiles.
8 subjects with hepatic impairment and 8 matched subjects with normal hepatic function were enrolled in the study. All subjects received a single oral 450-mg dose of vadadustat on Day 1 and were required to fast for at least 10 hours before dosing and for 4 hours after dosing.

[7] = Treatment P + V: pravastatin 40 mg + vadadustat 600 mg QD
[8] = Treatment P: pravastatin 40 mg alone
[9] = pravastatin 40 mg, vadadustat 600 mg QD
[10] = Rosuvastatin 20 mg, Compound 1 600 mg
[11] = Treatment R + V: rosuvastatin 20 mg + vadadustat 600 mg QD
[12] = Treatment R: rosuvastatin 20 mg alone
[13] = rosuvastatin 20 mg, vadadustat 600 mg QD
[14] = treatment Compound 1 450 mg alone

Question: Which “change of systemic exposure” value ([1]; administered with Compound 1 compared to alone) does the source give for `CC[C@H](C)C(=O)O[C@H]1C[C@H](O)C=C2C=C[C@H](C)[C@H](CC[C@@H](O)C[C@@H](O)CC(=O)O)[C@H]21` [Pravastatin, pravastatin] here?
Answer: unchanged

Question: What about the Cmax [1, 7] of the same compound?
Answer: 44 ng/mL

Question: And the AUC(0-inf) [1, 7]?
Answer: 137 µg·h/mL

Question: What about the AUC(0-t) [1, 7] of the same compound?
Answer: 134 µg·h/mL

Question: What about the Cmax [1, 8] of the same compound?
Answer: 53.2 ng/mL

Question: What about the AUC(0-inf) [1, 8] of the same compound?
Answer: 134 µg·h/mL

Question: What about the AUC(0-t) [1, 8] of the same compound?
Answer: 130 µg·h/mL

Question: What about the “AUC0-inf, Geometric LSM Ratio (P + V/P)” value [1, 9] of the same compound?
Answer: 102.03%

Question: And the “AUC0-last, Geometric LSM Ratio (P + V/P)” value [1, 9]?
Answer: 102.98%

Question: What about the “Cmax, Geometric LSM Ratio (P + V/P)” value [1, 9] of the same compound?
Answer: 82.74%

Question: With `CC(C)c1nc(N(C)S(C)(=O)=O)nc(-c2ccc(F)cc2)c1/C=C/[C@@H](O)C[C@@H](O)CC(=O)O` [Rosuvastatin, rosuvastatin] as the compound, how does the “AUC0-∞, Ratio of geometric mean value Combined/alone” value [2, 10] read?
Answer: 246.86%

Question: What about the “Cmax, Ratio of geometric mean value Combined/alone” value [2, 10] of the same compound?
Answer: 274.80%

Question: What about the AUC(0-inf) [2, 11] of the same compound?
Answer: 254 ng·h/mL

Question: What about the AUC(0-t) [2, 11] of the same compound?
Answer: 249 ng·h/mL

Question: And the Cmax [2, 11]?
Answer: 27.9 ng/mL

Question: What about the AUC(0-inf) [2, 12] of the same compound?
Answer: 103 ng·h/mL

Question: What about the AUC(0-t) [2, 12] of the same compound?
Answer: 98.4 ng·h/mL

Question: And the Cmax [2, 12]?
Answer: 10.2 ng/mL

Question: What about the “AUC0-inf, Geometric LSM Ratio (R + V/R)” value [2, 13] of the same compound?
Answer: 246.86%

Question: And the “AUC0-last, Geometric LSM Ratio (R + V/R)” value [2, 13]?
Answer: 252.86%

Question: And the “Cmax, Geometric LSM Ratio (R + V/R)” value [2, 13]?
Answer: 274.80%

Question: What does the source list for `Nc1ccc(S(=O)(=O)Nc2ccccn2)cc1` [Sulfapyridine, sulfapyridine]?
Answer: AUC(0-inf) [3]: 42800 ng·h/mL; AUC(0-t) [3]: 42400 ng·h/mL; Cmax [3]: 2580 ng/mL

Question: Which results are given for `CCC(C)(C)C(=O)O[C@H]1C[C@@H](C)C=C2C=C[C@H](C)[C@H](CC[C@@H](O)C[C@@H](O)CC(=O)O)[C@H]21` [β-hydroxysimvastatin acid, (3R,5R)-7-[(1S,2S,6R,8S,8aR)-8-(2,2-dimethylbutanoyloxy)-2,6-dimethyl-1,2,6,7,8,8a-hexahydronaphthalen-1-yl]-3,5-dihydroxyheptanoic acid]?
Answer: AUC(0-inf) (clinical): 20200 ng·h/mL; AUC(0-t) (clinical): 17300 ng·h/mL; Cmax (clinical): 1850 ng/mL

Question: For `O=C(CNC(=O)c1ncc(-c2cccc(Cl)c2)cc1O)O[C@@H]1O[C@H](C(=O)O)[C@@H](O)[C@H](O)[C@H]1O` [Compound 1-acyl-glucuronide], which “Metabolite Ratio AUC(0-t)” value ([4]; treatment Compound 1 + Iron) is on record?
Answer: 0.000458

Question: And the “Metabolite Ratio Cmax” value ([4]; treatment Compound 1 + Iron)?
Answer: 0.000909

Question: And the “Metabolite Ratio AUC(0-t)” value ([4]; treatment Compound 1 alone)?
Answer: 0.00543

Question: What about the “Metabolite Ratio Cmax” value ([4]; treatment Compound 1 alone) of the same compound?
Answer: 0.00112

Question: What about the “AUC(0-t)” value [4, 14] of the same compound?
Answer: 0.208 µg·h/mL

Question: And the Cmax [4, 14]?
Answer: 0.0826 µg/mL

Question: And the Tmax [4, 14]?
Answer: 1.75 h

Question: And the “AUC(0-t)” value ([4]; treatment Compound 1 + Iron)?
Answer: 0.0864 µg·h/mL

Question: And the Cmax ([4]; treatment Compound 1 + Iron)?
Answer: 0.0322 µg/mL

Question: What about the Tmax ([4]; treatment Compound 1 + Iron) of the same compound?
Answer: 3.0 h

Question: With `O=C(O)CNC(=O)c1ncc(-c2cccc(Cl)c2)cc1O[C@@H]1O[C@H](C(=O)O)[C@@H](O)[C@H](O)[C@H]1O` [Compound 1-O-glucuronide] as the compound, how does the “share of the total radioactivity (AUC0-∞) in plasma” value [5] read?
Answer: about 15%

Question: What about the “Metabolite Ratio AUC(0-inf)” value ([4]; treatment Compound 1 + Iron) of the same compound?
Answer: 0.0943

Question: And the “Metabolite Ratio AUC(0-t)” value ([4]; treatment Compound 1 + Iron)?
Answer: 0.0935

Question: What about the “Metabolite Ratio Cmax” value ([4]; treatment Compound 1 + Iron) of the same compound?
Answer: 0.0748

Question: And the “Metabolite Ratio AUC(0-inf)” value ([4]; treatment Compound 1 alone)?
Answer: 0.104

Question: And the “Metabolite Ratio AUC(0-t)” value ([4]; treatment Compound 1 alone)?
Answer: 0.104

Question: And the “Metabolite Ratio Cmax” value ([4]; treatment Compound 1 alone)?
Answer: 0.0848

Question: What about the “AUC(0-inf)” value [4, 14] of the same compound?
Answer: 44.5 µg·h/mL

Question: And the “AUC(0-t)” value [4, 14]?
Answer: 42.8 µg·h/mL

Question: And the Cmax [4, 14]?
Answer: 6.07 µg/mL

Question: And the Tmax [4, 14]?
Answer: 4.0 h

Question: What about the “AUC(0-inf)” value ([4]; treatment Compound 1 + Iron) of the same compound?
Answer: 19.7 µg·h/mL

Question: And the “AUC(0-t)” value ([4]; treatment Compound 1 + Iron)?
Answer: 18.6 µg·h/mL

Question: And the Cmax ([4]; treatment Compound 1 + Iron)?
Answer: 2.83 µg/mL

Question: And the Tmax ([4]; treatment Compound 1 + Iron)?
Answer: 5.0 h

Question: And the “Ae0-72, cumulative amount excreted in urine up to 72 hours” value ([6]; Moderate Hepatic Impairment)?
Answer: 585 ± 125.1 mg

Question: What about the “Fe%0-72, cumulative fraction excreted in urine” value ([6]; Moderate Hepatic Impairment) of the same compound?
Answer: 82.8% and 82.8 ± 17.69%

Question: And the “AUC0-inf, plasma, total” value ([6]; Moderate Hepatic Impairment)?
Answer: 70.9 ± 24.3 µg·h/mL

Question: And the “AUC0-last, plasma, total” value ([6]; Moderate Hepatic Impairment)?
Answer: 68.9 ± 24.2 µg·h/mL

Question: What about the “Cmax, plasma, total” value ([6]; Moderate Hepatic Impairment) of the same compound?
Answer: 5.85 ± 1.5 µg/mL

Question: What about the “Elimination Half-life (t1/2)” value ([6]; Moderate Hepatic Impairment) of the same compound?
Answer: 6.01 ± 2.1 h

Question: And the “Ae0-72, cumulative amount excreted in urine up to 72 hours” value ([6]; Normal Liver Function)?
Answer: 473 ± 83.76 mg

Question: And the “Fe%0-72, cumulative fraction excreted in urine” value ([6]; Normal Liver Function)?
Answer: 66.9% and 66.9 ± 11.84%

Question: And the “AUC0-inf, plasma, total” value ([6]; Normal Liver Function)?
Answer: 63.8 ± 21.3 µg·h/mL

Question: And the “AUC0-last, plasma, total” value ([6]; Normal Liver Function)?
Answer: 62.5 ± 21.3 µg·h/mL

Question: And the “Cmax, plasma, total” value ([6]; Normal Liver Function)?
Answer: 6.65 ± 2.4 µg/mL

Question: What about the “Elimination Half-life (t1/2)” value ([6]; Normal Liver Function) of the same compound?
Answer: 4.74 ± 1.3 h
